# Reference: ChEMBL document CHEMBL1131595, “Chemoprotective properties of phenylpropenoids, bis(benzylidene)cycloalkanones, and related Michael reaction acceptors: correlation of potencies as phase 2 enzyme inducers and radical scavengers” (J Med Chem, 1998)
# Experiment: Scavenging activity of compound (superoxide radicals generated by the oxidation of xanthine and xanthine oxidase),expressed as the percent quenching of luminescence of lucigenin at 50 nM concentration
row,Structure (SMILES),Free radical scavenging [%]
1,O=C1/C(=C/c2ccccc2)CCC/C1=C\c1ccccc1,11
2,COc1ccccc1/C=C1\CCC/C(=C\c2ccccc2OC)C1=O,19
3,COc1cc(/C=C2\CCC/C(=C\c3ccc(O)c(OC)c3)C2=O)ccc1O,30
4,O=C1/C(=C/c2ccccc2O)CC/C1=C\c1ccccc1O,70
5,O=C1/C(=C/c2ccccc2)CCCC/C1=C\c1ccccc1,11
6,O=C1/C(=C/c2ccccc2)CC/C1=C\c1ccccc1,10
7,O=C1/C(=C/c2ccccc2O)CCC/C1=C\c1ccccc1O,42
